In US7235588B2, “Method for reducing hypertension and heart failure” (The Research Foundation of State University of New York, priority 2001, dated 2007):
“Also recorded” adds a separate entry of the source. Read-outs that look alike come from different tables or passages of the source.

Legend:
[1] = system: St-domain/STAT binding activity; assay: Electrophoretic gel mobility-shift assay of St-domain/STAT binding in heart nuclear extracts; design: species or system rat; conditions: hearts, 30 min ischemia/120 min reperfusion
From the text: Nuclear extracts were examined in hearts subjected to global ischemia to determine whether there is enhanced STAT binding activity to the St domain of the angiotensinogen promoter. The nuclear heart extracts were examined by the electrophoretic gel mobility-shift assay that exployed the use of the chemically synthesized oligonucleotide sequence of the St domain. The St-domain DNA probe for protein binding was a double-stranded oligonucleotide containing the sequence 5′-GGGTtcCTGGAAGGG-3′ SEQ. ID NO: 2, and complementary strand 5′-CCCTTCCAGgaACCC-3′ SEQ. ID NO: 3, respectively. These probes were end-labeled by polynucleotide kinase and [γ-^32P]ATP. Binding reaction mixture containing 0.5 ng of labeled DNA (1,000 cpm), 2 μg of poly(dI-C), and 1-12 μg of protein in buffer containing 20 mM Hepes, 3% glycerol, 1.5 mM MgCl2, 1 mM DTT, 2 mM EDTA and 50 mM KCl, pH 7.5 was allowed to incubate at 4° C. for 30 min. The reactions were analyzed by electrophoresis on 8% polyacrylanide gel in 0.375× TBE ([…] Tris borate, pH 8.7 and 1.0 mM EDTA). After electrophoresis, the gels were dried and subjected to autoradiography. […] (FIG. 5B). The activation of STATs and the consequent binding to the St-domain in the angiotensinogen promoter accounts for the increase in transcription of angiotensinogen mRNA. […]

[2] = system: angiotensinogen mRNA; assay: Angiotensinogen mRNA expression in vivo in rat liver (northern blot); conditions: daily treatment to achieve 5 μM systemically, 10 days
Experimental: Tyrphostin AG490 was administered to rats in vivo. A subcutaneous pump was surgically placed with a catheter extended intraperitoneally. Rats were daily treated with tyrphostin AG490 to achieve a 5 μM concentration systemically. After 10 days, the animals were euthanized using approved animal protocols and the liver collected to isolate RNA. The isolated RNA was used to perform a northern blot and the nitrocellulose membrane was probed with the rat angiotensinogen cDNA. Loading control was performed using GAPDH as probe.

[3] = molecular target: Jak2 (Homo sapiens, UniProt O60674); conditions: cited from earlier work
[4] = system: angiotensinogen mRNA; assay: Angiotensinogen mRNA in hearts subjected to ischemia/reperfusion (primer extension assay); design: species or system rat; conditions: 30 min ischemia and 120 min reperfusion
Experimental: Ischemia was induced by a modified Langendorf-reperfusion method in rat hearts. Hearts from adult male rats were randomly divided into 4 groups and subjected to ischemia/reperfusion. In the ischemic group, hearts were perfused with Krebs-Henseleit buffer for 60 minutes, followed by 30 minutes of global ischemia. In the ischemic/reperfused group, hearts were perfused for 60 minutes, followed by 30 minutes of global ischemia and 120 minutes of reperfusion. Control group hearts were perfused for the same lengths of time.
Rat hearts subjected to ischemia/reperfusion were tested to determine whether activation of the renin-angiotensin system, as reflected by an increase in angiotensinogen mRNA, occurs in ischemic injury. The level of angiotensinogen mRNA was analyzed by primer extension assay using gene-specific DNA probes. A DNA primer spanning the complementary sequence of the rat angiotensinogen cDNA between nucleotides 302 and 279 (5′-[…]-3′) SEQ ID NO: 1 was end-labeled and used to evaluate the expression of angiotensinogen mRNA in total RNA isolated from the rat heart. The primer extension protocol was performed according to instructions provided by the supplier (Progema). Rat GAPDH cDNA specific primer was used as control. There was a marked increase in mRNA level after 30 minutes of ischemia and 120 minutes of reperfusion (FIG. 5A). […]

[5] = system: cardiomyocytes; assay: Cardiomyocyte apoptosis by TUNEL after ischemia/reperfusion; design: species or system rat; conditions: FIG. 4C
Experimental: Immunohistochemical detection of apoptotic cells was carried out by use of terminal dUTP nick end-labeling (TUNEL), in which residues of digoxigenin-labeled dUTP are catalytically incorporated into the DNA by terminal deoxynucleotidyl transferase II. The cells were incubated with a sheep polyclonal anti-digoxigenin antibody followed by a FITC-conjugated rabbit anti-sheep IgG as a secondary antibody. The heart sections were washed in PBS 3 times, blocked with normal rabbit serum, and incubated with mouse monoclonal antibody recognizing cardiac myosin heavy chain (Biogenesis Ltd) followed by staining with TRIRC-conjugated rabbit anti-mouse IgG ([…] dilution, Dalco, Japan). The fluorescence staining was viewed with a confocal laser microscope (Olympus Co). The apoptoic cells were counted and expressed as percentage of total myocyte population. Ischemia was induced by a modified Langendorf-reperfusion method in rat hearts. Hearts from adult male rats were randomly divided into 4 groups and subjected to ischemia/reperfusion. In the ischemic group, hearts were perfused with Krebs-Henseleit buffer for 60 minutes, followed by 30 minutes of global ischemia. In the ischemic/reperfused group, hearts were perfused for 60 minutes, followed by 30 minutes of global ischemia and 120 minutes of reperfusion. Control group hearts were perfused for the same lengths of time.

[6] = system: rat hearts; assay: Myocardial function of spontaneously beating working hearts subjected to ischemia/reperfusion
[7] = system: hearts subjected to ischemia/reperfusion; conditions: cited from earlier work
[8] = first 60 min of reperfusion, treated groups (5 and 50 μmol/L)

Chain of Jak2 (O60674 whole entry, species assumed, the tested form may be a part): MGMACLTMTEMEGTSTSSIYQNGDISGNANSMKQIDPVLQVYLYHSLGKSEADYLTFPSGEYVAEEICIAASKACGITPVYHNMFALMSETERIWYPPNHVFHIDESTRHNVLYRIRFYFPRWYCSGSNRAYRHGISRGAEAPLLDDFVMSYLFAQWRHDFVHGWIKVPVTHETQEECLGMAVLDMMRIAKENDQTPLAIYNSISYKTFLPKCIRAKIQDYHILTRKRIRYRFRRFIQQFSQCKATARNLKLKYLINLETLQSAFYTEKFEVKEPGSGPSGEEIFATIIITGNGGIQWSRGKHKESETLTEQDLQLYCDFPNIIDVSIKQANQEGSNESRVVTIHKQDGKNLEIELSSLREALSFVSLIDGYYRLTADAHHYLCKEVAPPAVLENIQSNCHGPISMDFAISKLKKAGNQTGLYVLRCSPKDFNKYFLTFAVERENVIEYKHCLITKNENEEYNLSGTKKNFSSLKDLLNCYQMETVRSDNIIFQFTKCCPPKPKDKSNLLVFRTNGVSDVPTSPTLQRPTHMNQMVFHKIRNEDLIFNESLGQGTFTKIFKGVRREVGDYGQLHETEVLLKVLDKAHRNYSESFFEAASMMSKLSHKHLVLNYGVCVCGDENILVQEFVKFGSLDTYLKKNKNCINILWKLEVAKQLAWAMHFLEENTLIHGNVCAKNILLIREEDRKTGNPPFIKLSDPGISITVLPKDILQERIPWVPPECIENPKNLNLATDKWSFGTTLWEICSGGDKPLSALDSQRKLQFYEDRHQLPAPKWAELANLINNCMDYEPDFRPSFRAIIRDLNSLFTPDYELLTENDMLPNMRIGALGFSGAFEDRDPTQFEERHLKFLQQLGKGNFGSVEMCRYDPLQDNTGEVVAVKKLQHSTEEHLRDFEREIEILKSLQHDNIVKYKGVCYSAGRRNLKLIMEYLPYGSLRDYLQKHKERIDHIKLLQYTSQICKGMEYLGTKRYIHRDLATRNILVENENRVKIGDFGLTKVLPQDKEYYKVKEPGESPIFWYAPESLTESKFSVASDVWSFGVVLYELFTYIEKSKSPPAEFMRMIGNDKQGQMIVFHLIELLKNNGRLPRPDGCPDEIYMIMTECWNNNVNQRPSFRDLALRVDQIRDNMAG

N#C/C(=C\c1ccc(O)c(O)c1)C(=O)NCc1ccccc1 [tyrphostin AG490]
St-domain/STAT binding activity (STAT/DNA complex formation) [1]: total loss of STAT/DNA complex formation; also recorded: reduction of St-domain/STAT binding activity | expression of angiotensinogen gene product mRNA [2]: abolished the expression of angiotensinogen gene product mRNA; also recorded: attenuation of angiotensinogen mRNA expression | Jak2 inhibition, selectivity ([3]; listed as AG490): selectively inhibits Jak2 | Jak2 inhibition, selectivity ([3]; listed as Tyrphostin AG490): selective, specific, and potent | angiotensinogen mRNA level [4]: inhibited the stimulation of the angiotensinogen mRNA level; also recorded: inhibition of angiotensinogen mRNA | apoptotic cell death of cardiomyocytes [5]: marked lowering of apoptotic cell death; also recorded: reduction of apoptosis of cardiomyocytes | cardioprotection (developed pressure and dP/dt) ([6]; 5 μmol/L): able to provide cardioprotection to approximately the same degree | Developed pressure ([6]; 5 μmol/L, 60 min of reperfusion (R-60)): 86±2.5 mm Hg | Developed pressure ([6]; 5 μmol/L, 90 min of reperfusion (R-90)): 69±5 mm HG | Developed pressure ([6]; 5 μmol/L, 120 min of reperfusion (R-120)): 60.85±4 mm Hg | dp/dt ([6]; 5 μmol/L, R-30): 3818±49.46 | dp/dt ([6]; 5 μmol/L, R-60): 3362±53.14 | dp/dt ([6]; 5 μmol/L, R-90): 2840±88 | dp/dt ([6]; 5 μmol/L, R-120): 2552±58.9 | baseline value for dP/dt ([6]; 50 μmol/L): increased slightly | cardioprotection (developed pressure and dP/dt) ([6]; 50 μmol/L): able to provide cardioprotection to approximately the same degree | Developed pressure ([6]; 50 μmol/L, 60 min of reperfusion (R-60)): 86±4.8 mm Hg | Developed pressure ([6]; 50 μmol/L, 90 min of reperfusion (R-90)): 72.7±5.7 mm HG | Developed pressure ([6]; 50 μmol/L, 120 min of reperfusion (R-120)): 53.75±7 mm Hg | dp/dt ([6]; 50 μmol/L, R-30): 4156±238 | dp/dt ([6]; 50 μmol/L, R-60): 3840±140 | dp/dt ([6]; 50 μmol/L, R-90): 3194.7±228 | dp/dt ([6]; 50 μmol/L, R-120): 2626±269 | dP/dt and developed pressure versus untreated group ([6]; all treated groups (5 and 50 μmol/L)): significantly higher | Developed pressure [6, 8]: minimally lowered | dP/dt value [6, 8]: not lowered | cardioprotection / myocardial damage due to ischemia [7]: afford cardioprotection
